Measured values as given in patent US9062123B2, “Labelled adrenomedullin derivatives and their use for imaging and therapy” (PLUMOSCIENCE INC., priority 2004, dated 2015).
Where two headings read alike, the source gives them in different places. Blank lines part the entries; values can stand above or below the compound they belong to. Ends that are not written are not given here.

How the values were obtained:
[1] = Plasma kinetics of 99mTc-cyclic AM and 99mTc-linear AM in dogs; format: in vivo, dog; conditions: two-compartment model
Description: The radiolabelled AM derivatives were injected in a volume of 1.5 mL into a right jugular vein catheter. A series of 200 μl blood samples were collected 1 min after the initial injection, then repeated every 5 min for a 30-min period. After each collection, an equal volume of saline was injected into the animal to maintain blood volume and pressure. The blood samples were then placed in a gamma counter (model 1470 Wizard, Wallac, Finland) to determine ^99mTc activity. Results were expressed as a percentage of total radioactivity injected.

[2] = dog, in vivo, iv
Description: Following intravenous injection of linear ^99mTc hAM1-52, dynamic acquisition of the lungs, heart, liver and kidneys was recorded for a 30-min period (one frame/sec during the first minute, then one frame/min for the remaining time). Static acquisitions were also recorded for whole individual organs, including lungs, kidneys, liver, heart, bladder, gallbladder and muzzle, at 30, 60, 120, 240 minutes after initial injection. These recordings were performed both in ventral and dorsal positions. Dynamic and static acquisitions were evaluated by using Matlab version 7.01 image analysis tools software. The ^99mTc total count, ^99mTc mean count, and region of interest (ROI) size were calculated for each organ. Data correction was applied for 1) radioactive decay, 2) table correction (dorsal images only), 3) geometric mean, and 4) organ's attenuation based on transmission factor. Results were expressed as a percentage of total radioactivity injected.

[3] = for plasma level: after 10 minutes
Description: The animals were anesthetized by an initial intra-muscular dose of xylazine (10 mg/kg) and ketamine (50 mg/kg), followed by an intraperitoneal injection of heparin (2000 U, Sigma Chemical Co.). Additional doses of xylazine/ketamine were used if noxious stimuli (hind feet pinching) could elicit nociceptive motor reflexes or changes of the systemic blood pressure.
99mTc-AM-L was injected in a volume of 200 μl (0.3 pmol, 0.5 mCi) into the right jugular vein.
Differences between groups were evaluated by two-tailed independent samples t-tests. Plasma kinetics of ^99mTc-AM-L were analyzed using a two compartments pharmacokinetic model with Prism v4.0 software and the fitted curves were compared using an F test. All values are reported as means±standard deviations.

[4] = in vivo
From the text: FIGS. 18 and 19 illustrate respectively images of the lungs of a dog and a rat to which purified ^99mTc linear hAM1-52 has been administered.

[5] = dog, in vivo
Description: Following intravenous injection, dynamic acquisition of the lungs, heart, liver and kidneys was recorded for a 30-min period (one frame/sec during the first minute, then one frame/min for the remaining time). Static acquisitions was also recorded for whole individual organs, including lungs, kidneys, liver, heart, bladder, gallbladder and muzzle, at 30, 60, 120, 240 minutes after initial injection. These recordings were performed both in ventral and dorsal positions. Dynamic and static acquisitions were evaluated by using Matlab version 7.01 image analysis tools software. The ^99mTc total count, ^99mTc mean count, and region of interest (ROI) size were calculated for each organ. Data correction was applied for 1) radioactive decay, 2) table correction (dorsal images only), 3) geometric mean, and 4) organ's attenuation based on transmission factor. Results were expressed as a percentage of total radioactivity injected.
The images were acquired using a Siemens dual hear Ecam Gamma camera 120 min after injection of the compound.

[6] = Kidney uptake of 99mTc-linear AM in rats with monocrotaline kidney damage; format: in vivo, rat; conditions: for kidney activity, % of total activity injected: external counting of the organs; for kidney uptake, % of total activity injected: external detection by gamma camera, 30 minutes
Description: Kidney damage was induced by a single intraperitoenal injection of monocrotaline 60 mg/kg in rats. Three weeks later the animal received were anaesthetized and mechanically ventilated. […] By both methods, the activity in the kidneys was expressed as a percentage of the total activity injected.

[7] = rat, in vivo
From the text: The animals were then sacrificed and the lungs, liver, kidneys (en bloc with the adrenal glands) and heart were removed and gravity drained.

[8] = dog, in vivo; remark: listed apart in the source
Description: FIG. 16 illustrates in vivo single-pass measurement of purified ^99mTc linear hAM1-52 clearance in dogs. Dogs were anesthetized and a catheter was inserted into the carotid artery and positioned just above the aortic valve. This catheter is connected to a peristaltic pump for automated blood withdrawal. Another catheter is placed into the jugular vein and positioned in the right ventricular outflow tract to allow bolus injection of the study tracers. A bolus was prepared by adding 2 mCi of purified ^99mTc linear hAM1-52 to 3 ml of Evans blue dye labeled albumin and 0.9% saline for a final volume of 6 ml. A single bolus indicator-dilution experiment was performed. The collected samples were processed and indicator-dilution curves constructed and analysed. Mean tracer ^99mTc linear hAM1-52 AM extraction during the pulmonary transit time was computed from the curves. Mean tracer extraction corresponds to the difference between the areas of the outflow curve of the vascular reference (albumin) and that of the extracted tracer (^99mTc linear hAM1-52). Recirculation of the tracers apparent in the terminal portion of the curves is removed by linear extrapolation of the semi-logarithmic down slopes.

[9] = target: AM1 (CRLR+RAMP2) receptor, lungs of dogs; assay: Displacement of labelled human adrenomedullin in the lungs of dogs; format: binding, dog; conditions: displacement of labelled hAM
[10] = In vivo single-pass pulmonary extraction of 125I-rAM(1-50) in dogs (indicator-dilution); design: species or system dog; conditions: for single-pass pulmonary extraction of 125I-rAM(1-50) after administration of the substance: dogs, intravenous bolus of 100 nmol, 5 min before
Description: Dogs were anaesthetized and prepared as described in detail in reference, which is hereby incorporated by reference. A catheter was inserted into the carotid artery and positioned just above the aortic valve. This catheter was connected to a peristaltic pump for automated blood withdrawal. Another catheter was placed into the jugular vein and positioned in the right ventricular outflow tract to allow bolus injection of the study tracers. A bolus was prepared by adding 3.3 μCi of 125I-rAM(1-50) (2.9 pmol) to 3 ml of Evans-Blue-dye labelled albumin and 0.9% saline to give a final volume of 6 ml. The mixture was separated into three equal parts for the two successive experiments in each animal and to realize dilution-curve standards. A baseline single-bolus indicator-dilution experiment was performed.
The collected samples were processed and indicator-dilution curves constructed and analyzed as described in previously cited reference 13. Cardiac output and mean tracer AM extraction during the pulmonary transit time were computed from the curves. Mean tracer extraction corresponded to the difference between the areas of the outflow curve of the vascular reference (albumin) and that of the extracted tracer (AM). Recirculation of the tracers apparent in the terminal portion of the curves was removed by linear extrapolation of the semi-logarithmic down slopes.

[11] = Plasma kinetics of 125I-rAM(1-50) after single intravenous injection in rats; format: in vivo, rat; conditions: given 5 min before the 125I-rAM(1-50) bolus
Description: All experimental procedures were performed in accordance with the regulations and ethical guidelines from Canadian Council for the Care of Laboratory Animals, and received approval by the Animal Ethics and Research Committee of the Montreal Heart Institute. Male Sprague-Dawley rats (Charles River), weighing between 400-450 g, were anaesthetized by an initial intramuscular dose of xylazine (10 mg/kg of body weight) and ketamine (50 mg/kg of body weight), followed by an intra-peritoneal injection of heparin (2000 units; Sigma). Catheters were inserted into the right carotid artery and jugular vein. Heart rate and systemic blood pressure were monitored continuously. […] Venous and arterial blood samples (3 ml) were collected and centrifuged (1875 g, 15 min, 4° C.) and the plasma saved for subsequent measurement of irAM (immunoreactive AM). A similar amount of saline was infused into the animals to prevent hypovolaemia.
The animals were then killed and the lungs, liver, kidneys (en bloc with the adrenal glands) and heart were removed and gravity drained. […] Results are expressed as a percentage of total radioactivity injected. […]
Multiple group comparisons were performed by factorial ANOVA, followed, when a significant interaction was found, by the Bonferroni/Dunn t test. […] In the canine experiments, the effect of drugs on AM extraction was analyzed by two-tailed paired Student's t tests. […]

[12] = Biodistribution / organ retention of 125I-rAM(1-50) in rats, with and without antagonists; format: in vivo, rat
Description: The animals were then killed and the lungs, liver, kidneys (en bloc with the adrenal glands) and heart were removed and gravity drained. […] Results are expressed as a percentage of total radioactivity injected.
The drugs were given by either intraarterial (n=10 in each group) or intravenous (n=10 in each group) injection 5 min before the ^125I-rAM(1-50) bolus. Plasma samples and tissues were treated as described above.

Sequence of AM1 (CRLR+RAMP2) receptor, lungs of dogs (A0A8I3NWR4 25-462): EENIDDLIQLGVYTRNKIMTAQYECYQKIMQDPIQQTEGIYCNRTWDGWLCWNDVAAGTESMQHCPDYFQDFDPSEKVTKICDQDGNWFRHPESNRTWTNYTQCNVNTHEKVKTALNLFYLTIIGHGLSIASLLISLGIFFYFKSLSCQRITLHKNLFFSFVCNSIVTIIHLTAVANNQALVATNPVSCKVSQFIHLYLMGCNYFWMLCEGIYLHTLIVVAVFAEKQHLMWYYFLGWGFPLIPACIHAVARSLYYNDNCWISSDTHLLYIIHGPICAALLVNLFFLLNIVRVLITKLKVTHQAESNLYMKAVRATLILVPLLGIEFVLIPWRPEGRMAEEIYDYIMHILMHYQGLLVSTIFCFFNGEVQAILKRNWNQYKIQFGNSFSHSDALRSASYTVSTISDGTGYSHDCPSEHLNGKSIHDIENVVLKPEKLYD

distribution half-life [1]: less than two min
Compound: CC[C@H](C)[C@H](NC(=O)[C@H](CCC(N)=O)NC(=O)[C@H](Cc1c[nH]cn1)NC(=O)[C@H](C)NC(=O)[C@H](CC(C)C)NC(=O)[C@H](CCCCN)NC(=O)[C@H](CCC(N)=O)NC(=O)[C@@H](NC(=O)[C@@H](NC(=O)[C@@H]1CSSC[C@H](NC(=O)CNC(=O)[C@H](Cc2ccccc2)NC(=O)[C@H](CO)NC(=O)[C@H](CCCNC(=N)N)NC(=O)[C@H](CC(C)C)NC(=O)CNC(=O)[C@H](CCC(N)=O)NC(=O)[C@H](Cc2ccccc2)NC(=O)[C@H](CC(N)=O)NC(=O)[C@H](CC(N)=O)NC(=O)[C@H](CCSC)NC(=O)[C@H](CO)NC(=O)[C@H](CCC(N)=O)NC(=O)[C@H](CCCNC(=N)N)NC(=O)[C@H](Cc2ccc(O)cc2)NC(=O)CN(CCN(CCN(CC(=O)O)CC(=O)O)CC(=O)O)CC(=O)O)C(=O)N[C@@H](CCCNC(=N)N)C(=O)N[C@@H](Cc2ccccc2)C(=O)NCC(=O)N[C@@H]([C@@H](C)O)C(=O)N1)[C@@H](C)O)C(C)C)C(=O)N[C@@H](Cc1ccc(O)cc1)C(=O)N[C@@H](CCC(N)=O)C(=O)N[C@@H](Cc1ccccc1)C(=O)N[C@H](C(=O)N[C@@H](CC(=O)O)C(=O)N[C@@H](CCCCN)C(=O)N[C@@H](CC(=O)O)C(=O)N[C@@H](CCCCN)C(=O)N[C@@H](CC(=O)O)C(=O)N[C@@H](CC(N)=O)C(=O)N[C@H](C(=O)N[C@@H](C)C(=O)N1CCC[C@H]1C(=O)N[C@@H](CCCNC(=N)N)C(=O)N[C@@H](CO)C(=O)N[C@@H](CCCCN)C(=O)N[C@H](C(=O)N[C@@H](CO)C(=O)N1CCC[C@H]1C(=O)N[C@@H](CCC(N)=O)C(=O)NCC(=O)N[C@@H](Cc1ccc(O)cc1)C(N)=O)[C@@H](C)CC)C(C)C)[C@@H](C)O [^99mTc-cyclic AM, metal not drawn]

Compound: ^99mTc-linear AM: linear hAM(1-52) labelled directly with 99mTc
lung retention [2]: 24%
plasma level ([3]; PAH (MCT) rats): 2.08±0.65 % ID
plasma level ([3]; control rats): 1.25±0.28 % ID
plasma levels in PAH compared to control animals ([3]; fitted curves, rats): approximately two-fold higher
pulmonary uptake, image ([4]; dog): relatively specific and homogeneous pulmonary uptake
pulmonary uptake, image ([4]; rat): relatively specific and homogeneous pulmonary uptake
kidney retention [5]: 20-30%
kidney retention, whole body imaging [5]: significantly retained by the kidney
kidney activity, % of total activity injected ([6]; control rats): 27%±6%
kidney uptake, % of total activity injected ([6]; control rats): 23%±3%
kidney activity, % of total activity injected ([6]; monocrotaline treated rats): 11%±7%
kidney uptake, % of total activity injected ([6]; monocrotaline treated rats): 10%±6%
lung retention [7]: significantly retained by lungs
route of elimination [7]: eliminated by the kidneys (mostly) and the liver
thyroid uptake [7]: minimal
time for which lung uptake is maintained [7]: at least 1 hour
reduction in kidney uptake after MCT (MCT versus control rats): about 50%
heart uptake, ex vivo (PAH (MCT) rats): 0.77±0.46 % ID
lung uptake, in vivo biodistribution (PAH (MCT) rats, gamma camera, 30 minutes): 4±1%
lung retention, ex vivo (PAH (MCT) rats, gamma counter, 30 minutes): 3±1%
reduction in lung uptake in PAH (PAH versus control rats): ~70%
heart uptake, ex vivo (rat, in vivo): 0.18±0.03 % ID
lung retention, ex vivo (rat, in vivo): 11±2 % ID
liver, kidney and bladder activities, MCT group compared to control group (rats, 30 minutes): increased liver uptake but lower kidney and bladder activities
mean single pass extraction by the lung [8]: 21%

IC50 [9]: 0.81 µM
Compound: hAM(22-52): C-terminal human AM fragment that blocks the specific AM receptor
single-pass pulmonary extraction of 125I-rAM(1-50) after administration of the substance [10]: 31.4±3.3%
effect on plasma kinetics of radiolabelled rAM(1-50) [11]: did not modify plasma kinetics
effect on activity of 125I-rAM(1-50) retained in kidneys ([12]; given before the tracer): elevated the retained activity
effect on biodistribution of 125I-rAM(1-50) ([12]; given before the tracer): did not significantly modify this distribution
effect on pulmonary first-pass retention of 125I-rAM(1-50) ([12]; prior administration): not affected

Compound: unlabelled rAM(1-50): unlabelled rat adrenomedullin (1-50), American Peptide (YRQSMNQGSRSTGCRFGTCTMQKLAHQIYQFTDKDKDGMAPRNKISPQGY; ends and bridges not checked; cysteine pairing not given here)
single-pass pulmonary extraction of 125I-rAM(1-50) after administration of the substance [10]: 21.9±2.4%
mean extraction of 125I-rAM(1-50) after injection of the substance ([10]; same dog, second experiment): 12%
effect on plasma kinetics of radiolabelled rAM(1-50) [11]: did not modify plasma kinetics
effect on amount of 125I-rAM(1-50) retained by the liver, kidneys and heart ([12]; given before the tracer): significantly increased
effect on lung activity of 125I-rAM(1-50) ([12]; given before the tracer): important reduction in lung activity
